This experiment deals with T1, MCH receptor (Homo sapiens, UniProt Q99705).
T1 construct: expressed in transfected cells; host or cells: CHO cells
The experiment can be described thus: MCH Receptor Binding Assay ([125I]-MCH, SPA beads, membranes from CHO cells expressing the MCH receptor). As for the experimental part: MCH Receptor Binding Assay:
Membranes from CHO cells expressing the MCH receptor were prepared by lysing cells with 5 mM HEPES for 15 minutes at 4° C. Cell lysates were centrifuged ([…], 15 minutes) and the pellet was resuspended in 5 mM HEPES. For each 96-well plate (Microlite, Dynex Technologies), 1 mg of cell membranes were incubated with 10 mg of wheat germ agglutinin SPA beads (Amersham) for 5 minutes at 4° C. in a volume of 10 ml of binding buffer (25 mM HEPES, 10 mM MGCl2, 10 mM NaCl, 5 mM MnCl2, 0.1% BSA). The membrane/bead mixture was centrifuged (1500×g, 3.5 min), the supernatant was aspirated, and the pellet was resuspended in 10 ml binding buffer. The centrifugation, aspiration and resuspension were then repeated. The membrane/bead mixture (100 μl) was then added to 96-well plates containing 50 μl of 500 pM [^125I]-MCH (NEN) and […] of the appropriate concentration of compound (4X the desired final concentration). Nonspecific binding was determined by including 1 μM MCH in the binding reaction. The binding reaction was incubated at room temperature for 2 hours. Plates were then analyzed in a TOPCOUNT microplate scintillation counter (Packard). Data was analyzed and Ki values were determined using GraphPad Prism.

Where only a bound is given, the exact number is not on record here.

T1 sequence (Q99705 whole entry): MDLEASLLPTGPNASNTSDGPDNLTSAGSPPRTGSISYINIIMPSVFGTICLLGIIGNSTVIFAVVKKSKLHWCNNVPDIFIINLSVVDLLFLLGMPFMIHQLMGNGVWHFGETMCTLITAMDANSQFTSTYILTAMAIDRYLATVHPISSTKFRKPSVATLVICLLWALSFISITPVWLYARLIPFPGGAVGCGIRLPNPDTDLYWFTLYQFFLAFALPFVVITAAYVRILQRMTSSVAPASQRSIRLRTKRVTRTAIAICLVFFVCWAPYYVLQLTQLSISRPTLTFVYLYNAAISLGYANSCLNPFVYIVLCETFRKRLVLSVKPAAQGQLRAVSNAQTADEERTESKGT

Turning to `CN1CCN(CCCN(C(=O)Nc2ccc(F)c(Cl)c2)C2CCc3ccc(N)cc3C2)CC1` (stereo not shown), for the setting “Ki rating (class)”, the Ki is < 1000 nM. On the same count and under the same terms, then `CN1CCN(CCCN(C(=O)Nc2ccc(F)c(Cl)c2)C2CCc3ccc(S(C)(=O)=O)cc3C2)CC1` (stereo not shown), with 1000 to 2000 nM. For the compound `CC(=O)Nc1ccc2c(c1)CC(N(CCCN1CCN(C)CC1)C(=O)Nc1ccc(F)c(Cl)c1)CC2` (stereo not shown) [Compound I, N-(7-{3-(3-chloro-4-fluoro-phenyl)-1-[3-(4methyl-piperazin-1-yl)-propyl]-ureido}-5,6,7,8-tetrahydro-naphthalen-2yl)-acetamide], the Ki runs as follows: (Ki rating (class)) < 1000 nM; ([125I]-MCH) 6 nM. With `CN1CCN(CCCN(C(=O)Nc2ccc(F)c(Cl)c2)C2CCc3ccc([N+](=O)[O-])cc3C2)CC1` (stereo not shown) [Compound II, 3-(3-chloro-4-fluoro-phenyl)-1-[3-(4-methyl-piperazin-1-yl)-propyl]-1-(7-nitro-1,2,3,4-tetrahydro-naphthalen-2-yl)-urea], the Ki was < 1000 nM (Ki rating (class)) and 11 nM ([125I]-MCH). Take `CN1CCN(CCCN(C(=O)Nc2ccc(F)c(Cl)c2)C2CCc3ccc(C#N)cc3C2)CC1` (stereo not shown) [Compound III, 3-(3-chloro-4-fluoro-phenyl)-1-(7-cyano-1,2,3,4-tetrahydro-naphthalen-2-yl)-1-[3-(4-methyl-piperazin-1-yl)-propyl]-urea]: the Ki (Ki rating (class)) was < 1000 nM and the Ki ([125I]-MCH) was determined as 14 nM. The like results for `CC(C)C(=O)Nc1ccc2c(c1)CC(N(CCCN1CCN(C)CC1)C(=O)Nc1ccc(F)c(Cl)c1)CC2` (stereo not shown) [Compound IV, N-(7-{3-(3-chloro-4-fluoro-phenyl)-1-[3-(4-methyl-piperazin-1-yl)-propyl]-ureido}-5,6,7,8-tetrahydro-naphthalen-2-yl)-isobuty ramide] were, in that order, < 1000 nM and 61 nM. The like results for `CCNC(=O)Nc1ccc2c(c1)CC(N(CCCN1CCN(C)CC1)C(=O)Nc1ccc(F)c(Cl)c1)CC2` (stereo not shown) [Compound IX, 1-(7-{3-(3-chloro-4-fluoro-phenyl)-1-[3-(4-methyl-piperazin-1-yl)-propyl]-ureido}-5,6,7,8-tetrahydro-naphthalen-2-yl)-3-ethyl-urea] were, in that order, < 1000 nM and 157 nM. For `CN1CCN(CCCN(C(=O)Nc2cc(Cl)nc(Cl)c2)C2CCc3cc(C#N)ccc3C2)CC1` (stereo not shown) [Compound VI, 3-(2,6-dichloro-pyridin-4-yl)-1-(6-cyano-1,2,3,4-tetrahydro-naphthalen-2-yl)-1-[3-(4-methyl-piperazin-1-yl)-propyl]-urea], in that order: < 1000 nM and 65 nM.

For the compound `COc1ccc2c(c1)CC(N(CCCN1CCN(C)CC1)C(=O)Nc1ccc(F)c(Cl)c1)CC2` (stereo not shown) [Compound VII, 3-(3-chloro-4-fluoro-phenyl)-1-(7-methoxy-1,2,3,4-tetrahydro-naphthalen-2-yl)-1-[3-(4-methyl-piperazin-1-yl)-propyl]-urea], the Ki (Ki rating (class)) was < 1000 nM and the Ki ([125I]-MCH) stood at 92 nM. On to `CN1CCN(CCCN(C(=O)Nc2ccc(F)c(Cl)c2)C2CCc3ccc(NS(C)(=O)=O)cc3C2)CC1` (stereo not shown) [Compound VIII, N-(7-{3-(3-chloro-4-fluoro-phenyl)-1-[3-(4-methyl-piperazin-1-yl)-propyl]-ureido}-5,6,7,8-tetrahydro-naphthalen-2-yl)-methanesulfonamide], for which the Ki reads like this: (Ki rating (class)) < 1000 nM; ([125I]-MCH) 96 nM. On to `C[C@@H]1CN[C@@H](C)CN1CCCN(C(=O)Nc1cc(Cl)nc(Cl)c1)C1COc2ccc(Br)cc2C1` (stereo partly shown) [Compound V], for which the Ki is, setting by setting: (Ki rating (class)) < 1000 nM; ([125I]-MCH) 63 nM. For `CN1CCN(CCCN(C(=O)Nc2ccc(F)c(Cl)c2)C2CCc3cc(Br)ccc3C2)CC1` (stereo not shown) [Compound X, 1-(6-bromo-1,2,3,4-tetrahydro-naphthalen-2-yl)-3-(3-chloro-4-fluoro-phenyl)-1-[3-(4-methyl-piperazin-1-yl)-propyl]-urea], in that order: < 1000 nM and 178 nM. Take `COc1ccc2c(c1)CCC(N(CCCN1CCN(C)CC1)C(=O)Nc1ccc(F)c(Cl)c1)C2` (stereo not shown) [Compound XII, 3-(3-chloro-4-fluoro-phenyl)-1-(6-methoxy-1,2,3,4-tetrahydro-naphthalen-2-yl)-1-[3-(4-methyl-piperazin-1-yl)-propyl]-urea]: the Ki (Ki rating (class)) is < 1000 nM. On the same count and under the same terms, then `CN1CCN(CCCN(C(=O)Nc2cc(Cl)nc(Cl)c2)C2CCc3ccc(S(C)(=O)=O)cc3C2)CC1` (stereo not shown) [Compound XIII, 3-(2,6-dichloro-pyridin-4-yl)-1-(7-methanesulfonyl-1,2,3,4-tetrahydro-naphthalen-2-yl)-1-[3-(4-methyl-piperazin-1-yl)-propyl]-urea], with < 1000 nM; and `CN1CCN(CCCN(C(=O)Nc2ccc(F)c(Cl)c2)C2Cc3ccccc3C2)CC1` [Compound XIX, 3-(3-chloro-4-fluoro-phenyl)-1-indan-2-yl-1-[3-(4-methyl-piperazin-1-yl)-propyl]-urea], with < 1000 nM; and `C[C@@H]1CN(CCCN(C(=O)Nc2cc(Cl)nc(Cl)c2)C2COc3ccc(Br)cc3C2)[C@@H](C)CN1` (stereo partly shown) [Compound XI], with < 1000 nM.

For the compound `CN1CCN(CCCN(C(=O)Nc2ccc(F)c(Cl)c2)C2CCc3cc(C#N)ccc3C2)CC1` (stereo not shown) [Compound XVI, 3-(3-chloro-4-fluoro-phenyl)-1-(6-cyano-1,2,3,4-tetrahydro-naphthalen-2-yl)-1-[3-(4-methyl-piperazin-1-yl)-propyl]-urea], where the note is “Ki rating (class)”, the Ki is < 1000 nM.

For `CN1CCN(CCCN(C(=O)Nc2ccc(F)c(Cl)c2)C2CCc3ccccc3C2)CC1` (stereo not shown) [Compound XVII, 3-(3-chloro-4-fluoro-phenyl)-1-[3-(4-methyl-piperazin-1-yl)-propyl]-1-(1,2,3,4-tetrahydro-naphthalen-2-yl)-urea], the Ki (Ki rating (class)) was < 1000 nM. The same measure, in the same setting: the figure for `C[C@@H]1CN[C@@H](C)CN1CCCN(C(=O)Nc1ccc(F)c(Cl)c1)C1COc2ccc(Br)cc2C1` (stereo partly drawn) [Compound XVIII, (2R,5S)-1-(6-bromo-chroman-3-yl)-3-(3-chloro-4-fluoro-phenyl)-1-[3-(2,5-dimethyi-piperazin-1-yl)-propyl]-urea] is < 1000 nM. `C[C@@H]1CN(C(=O)OC(C)(C)C)[C@@H](C)CN1CCCN(C(=O)Nc1cc(Cl)nc(Cl)c1)C1COc2ccc(Br)cc2C1` (stereo partly shown) [Compound XV]: the Ki (Ki rating (class)) is < 1000 nM. On the same count and under the same terms, the figure for `COc1cc2c(cc1OC)CC(N(CCCN1CCN(C)CC1)C(=O)Nc1cc(Cl)nc(Cl)c1)CC2` (stereo not shown) [Compound XX, 3-(2,6-dichloro-pyridin-4-yl)-1-(6,7-dimethoxy-1,2,3,4-tetrahydro-naphthalen-2-yl)-1-[3-(4-methyl-piperazin-1-yl)-propyl]-urea] is < 1000 nM; for `CNS(=O)(=O)c1ccc2c(c1)CC(N(CCCN1CCN(C)CC1)C(=O)Nc1cc(Cl)nc(Cl)c1)CC2` (stereo not shown) [Compound XXII, 7-{3-(2,6-dichloro-pyridin-4-yl)-1-[3-(4-methyl-piperazin-1-yl)-propyl]-ureido}-5,6,7,8-tetrahydro-naphthalene-2-sulfonic acid methylamide] it is < 1000 nM; for `C[C@@H]1CN(CCCN(C(=O)Nc2ccc(F)c(Cl)c2)C2COc3ccc(Br)cc3C2)[C@@H](C)CN1` (stereo partly shown) [Compound XXI] it is < 1000 nM. The same measure, in the same setting: then `C[C@@H]1CN(C(=O)OC(C)(C)C)[C@@H](C)CN1CCCN(C(=O)Nc1ccc(F)c(Cl)c1)C1COc2ccc(Br)cc2C1` (stereo partly drawn) [Compound XXV, (2S,5R)-4-{3-[1-(6-bromo-chroman-3-yl)-3-(3-chloro-4-fluoro-phenyl)-ureido]-propyl}-2,5-dimethyl-piperazine-1-carboxylic acid tert-butyl ester], with 1000 to 2000 nM. For the compound `CNS(=O)(=O)c1ccc2c(c1)CC(N(CCCN1CCN(C)CC1)C(=O)Nc1ccc(F)c(C(F)(F)F)c1)CC2` (stereo not shown) [Compound XXVII, 7-{3-(4-fluoro-3-trifluoromethyl-phenyl)-1-[3-(4-methyl-piperazin-1-yl)-propyl]-ureido}-5,6,7,8-tetrahydro-naphthalene-2-sulfonic acid methylamide], the Ki (Ki rating (class)) fell in the range of 1000 to 2000 nM. On the same count and under the same terms, the figure for `COc1cc2c(cc1OC)CC(N(CCCN1CCN(C)CC1)C(=O)Nc1ccc(F)c(Cl)c1)CC2` (stereo not shown) [Compound XXVIII, 3-(3-chloro-4-fluoro-phenyl)-1-(6,7-dimethoxy-1,2,3,4-tetrahydro-naphthalen-2-yl)-1-[3-(4-methyl-piperazin-1-yl)-propyl]-urea] is > 2000 nM; for `C[C@@H]1CN(CCCN(C(=O)Nc2ccc(F)c(Cl)c2)C2COc3ccc(Br)cc3C2)[C@@H](C)CN1C(=O)OC(C)(C)C` (stereo partly shown) [Compound XXVI] it is 1000 to 2000 nM. On to `CN1CCN(CCCN(C(=O)Nc2ccc(F)c(Cl)c2)C2CCc3ccc(S(=O)(=O)N(C)C)cc3C2)CC1` (stereo not shown) [Compound XXX, 7-{3-(3-chloro-4-fluoro-phenyl)-1-[3-(4-methyl-piperazin-1-yl).-propyl]-ureido}-5,6,7,8-tetrahydro-naphthalene-2-sulfonic acid dimethylamide], for which, under “Ki rating (class)”, the Ki is > 2000 nM. Still for that read-out and setting: then `CN1CCN(CCCN(C(=O)Nc2ccc(F)c(C(F)(F)F)c2)C2CCc3ccc(S(=O)(=O)N(C)C)cc3C2)CC1` (stereo not shown) [Compound XXXI, 7-{3-(4-fluoro-3-trifluoromethyl-phenyl)-1-[3-(4-methyl-piperazin-1-yl)-propyl]-ureido}-5,6,7,8-tetrahydro-naphthalene-2-sulfonic acid dimethylamide], with > 2000 nM; and `CN1CCN(CCCN(C(=O)Nc2cc(Cl)nc(Cl)c2)C2CCc3ccc(S(=O)(=O)N(C)C)cc3C2)CC1` (stereo not shown) [Compound XXXII], with > 2000 nM.

The values above are taken from patent US7550467B2 (Schering Corporation, priority 2004, dated 2009).
